Laboratory results published in patent publication US10611774B2, “Salt form of DPPIV inhibitor and preparation method thereof” (SHANGHAI INSTITUTE OF MATERIA MEDICA, CHINESE ACADEMY OF …, priority 2016, dated 2020).
Blank lines part the entries; values can stand above or below the compound they belong to.

What was measured:
DPP IV [1] = biological target: DPP IV (Homo sapiens, UniProt P27487); test: DPP IV inhibitory activity and selectivity in vitro; assay type: biochemical
DPP IV [2] = biological target: T1, DPP IV (Mus musculus, UniProt P28843); test: Inhibition of DPP IV activity in normal mice plasma; assay type: in vivo
T1 construct: from tissue; host or cells: plasma of normal mice

DPP IV [3] = biological target: T2, DPP IV (Rattus norvegicus, UniProt P14740); test: Inhibition of DPP IV activity in normal rat plasma; assay type: in vivo
T2 construct: from tissue; host or cells: plasma of normal rats

normal ICR mice = test: Oral glucose tolerance of normal ICR mice; assay type: in vivo
ob/ob mice = test: Fasting blood glucose of ob/ob mice, chronic administration; assay type: in vivo
db/db mice = test: Fasting blood glucose of gene-deficient db/db mice, chronic administration; assay type: in vivo
Pharmacokinetics in rats = assay type: in vivo
Pharmacokinetics in dogs = assay type: in vivo
ICR mice = test: Acute toxicity test of ICR mice; assay type: in vivo; settings: 300 mg/kg administration group
rats = test: Subacute toxicity experiment of rats; assay type: in vivo; settings: 150 mg/kg orally administrated group
[4] = Hygroscopicity analysis (DVS); assay type: physicochemical; settings: for hygroscopicity (DVS): 25° C.; for water absorbed: at 80% RH; for humidity variation range: conventional storage humidity range
Procedure: Dynamic vapor absorption (DVS) test/water absorption test rapidly measures the increase and loss of the moisture in the sample caused by flow carrier gas with set relative humidity (RH), wherein the sample is placed on a digital microbalance with high sensitivity and high stability at a self-suspension state, and then the adsorption/desorption of water vapor is measured by measuring the increase/decrease of mass of the material, thereby determining the hygroscopicity of the sample.
In the present invention, the test parameters of the DVS are as follows: Instrument type: SMS DVS Intrinsic; Non-hydrate: 0 to 95%-0% RH; Temperature: 25° C.; Hydrate: 40 to 95%-0% RH; Temperature: 25° C.

[5] = versus sitagliptin and vildagliptin

Chain of DPP IV (Homo sapiens, UniProt P27487) (P27487 whole entry, species assumed): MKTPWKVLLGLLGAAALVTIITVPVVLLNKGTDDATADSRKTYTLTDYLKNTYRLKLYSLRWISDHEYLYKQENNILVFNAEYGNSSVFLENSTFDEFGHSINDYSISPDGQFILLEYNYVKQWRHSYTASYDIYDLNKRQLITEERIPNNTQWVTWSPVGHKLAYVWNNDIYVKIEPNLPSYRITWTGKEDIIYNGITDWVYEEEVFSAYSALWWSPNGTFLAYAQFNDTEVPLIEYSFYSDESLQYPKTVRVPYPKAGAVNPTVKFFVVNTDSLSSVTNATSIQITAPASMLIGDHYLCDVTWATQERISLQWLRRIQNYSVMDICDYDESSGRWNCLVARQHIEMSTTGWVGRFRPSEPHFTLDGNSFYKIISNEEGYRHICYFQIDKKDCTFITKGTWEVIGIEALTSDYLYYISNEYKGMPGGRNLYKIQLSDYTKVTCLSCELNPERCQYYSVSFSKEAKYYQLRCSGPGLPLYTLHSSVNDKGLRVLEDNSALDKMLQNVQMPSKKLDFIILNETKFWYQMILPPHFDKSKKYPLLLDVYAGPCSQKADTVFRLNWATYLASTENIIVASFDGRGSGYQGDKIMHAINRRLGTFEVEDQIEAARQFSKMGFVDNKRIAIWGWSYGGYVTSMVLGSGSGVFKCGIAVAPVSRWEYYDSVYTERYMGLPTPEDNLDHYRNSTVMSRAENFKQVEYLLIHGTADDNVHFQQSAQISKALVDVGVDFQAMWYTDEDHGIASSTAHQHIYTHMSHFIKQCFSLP
T2 sequence (P14740 37-767 limits assumed): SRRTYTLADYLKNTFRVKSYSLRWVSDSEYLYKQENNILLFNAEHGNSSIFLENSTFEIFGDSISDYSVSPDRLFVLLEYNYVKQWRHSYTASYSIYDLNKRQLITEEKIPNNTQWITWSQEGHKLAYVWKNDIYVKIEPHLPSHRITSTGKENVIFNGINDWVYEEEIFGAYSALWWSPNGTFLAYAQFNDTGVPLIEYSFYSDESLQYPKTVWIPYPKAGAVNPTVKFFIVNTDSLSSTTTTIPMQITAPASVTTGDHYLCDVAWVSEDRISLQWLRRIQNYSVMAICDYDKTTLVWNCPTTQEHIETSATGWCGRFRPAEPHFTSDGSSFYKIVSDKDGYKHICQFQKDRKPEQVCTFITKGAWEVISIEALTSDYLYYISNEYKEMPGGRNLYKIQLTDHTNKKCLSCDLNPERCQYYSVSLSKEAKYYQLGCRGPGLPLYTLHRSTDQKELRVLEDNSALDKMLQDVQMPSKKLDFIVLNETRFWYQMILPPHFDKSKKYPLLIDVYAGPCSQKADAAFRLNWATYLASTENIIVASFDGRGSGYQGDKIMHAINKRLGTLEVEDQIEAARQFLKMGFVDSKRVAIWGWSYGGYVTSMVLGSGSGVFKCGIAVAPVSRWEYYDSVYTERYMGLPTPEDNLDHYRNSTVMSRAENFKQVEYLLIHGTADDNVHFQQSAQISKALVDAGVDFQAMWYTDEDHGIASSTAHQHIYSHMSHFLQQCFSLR
T1 sequence (P28843 37-760 limits assumed): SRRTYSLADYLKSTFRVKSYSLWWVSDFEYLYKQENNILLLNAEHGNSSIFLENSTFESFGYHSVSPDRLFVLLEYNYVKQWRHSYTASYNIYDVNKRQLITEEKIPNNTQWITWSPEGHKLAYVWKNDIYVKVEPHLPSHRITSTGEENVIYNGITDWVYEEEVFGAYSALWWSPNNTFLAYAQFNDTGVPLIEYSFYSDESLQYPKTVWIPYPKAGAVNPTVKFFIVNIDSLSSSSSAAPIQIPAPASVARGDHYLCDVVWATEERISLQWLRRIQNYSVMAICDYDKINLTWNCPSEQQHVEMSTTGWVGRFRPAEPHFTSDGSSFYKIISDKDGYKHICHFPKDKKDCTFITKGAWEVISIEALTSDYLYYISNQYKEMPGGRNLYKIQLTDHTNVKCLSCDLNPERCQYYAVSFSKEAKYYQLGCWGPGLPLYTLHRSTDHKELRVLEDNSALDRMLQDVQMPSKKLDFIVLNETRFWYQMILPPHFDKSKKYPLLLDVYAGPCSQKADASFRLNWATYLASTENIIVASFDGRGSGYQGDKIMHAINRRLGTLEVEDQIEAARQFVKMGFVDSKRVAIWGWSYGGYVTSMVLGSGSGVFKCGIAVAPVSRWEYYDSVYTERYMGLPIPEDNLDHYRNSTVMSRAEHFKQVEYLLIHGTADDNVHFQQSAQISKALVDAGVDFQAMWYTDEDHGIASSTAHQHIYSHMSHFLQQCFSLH

Compound: COC(=O)c1cc2nc(N3CCC[C@@H](N)C3)n(Cc3ccccc3C#N)c(=O)c2s1 [compound of formula I, (R)-methyl-2-(3-aminopiperidin-1-yl)-3-(2-cyanobenzyl)-4-carbonyl-3,4-dihydrothiophene[3,2-d]pyrimidine-6-carboxylic acid]
DPP IV inhibitory activity (DPP IV [1]; in vitro): up to nanomolar level
DPP IV inhibitory activity in vitro compared with marketed drugs (DPP IV [1]; [5]): superior to the marketed drugs, sitagliptin and vildagliptin
selectivity in vitro compared with marketed drugs (DPP IV [1]; [5]): superior to the marketed drugs, sitagliptin and vildagliptin
DPP IV inhibitory activity in animals compared with alogliptin (DPP IV [2]): superior to the marketed drug alogliptin
inhibition of DPP IV activity in plasma (DPP IV [2]): effective in inhibiting DPP IV activity
DPP IV inhibitory activity in animals compared with alogliptin (DPP IV [3]): superior to the marketed drug alogliptin
inhibition of DPP IV activity in plasma (DPP IV [3]): effective in inhibiting DPP IV activity
effect on oral glucose tolerance (normal ICR mice): increase the oral glucose tolerance of normal ICR mice in a dose-dependent manner
onset dose, oral glucose tolerance (normal ICR mice): 0.1 mg/kg
oral glucose tolerance effect compared with alogliptin (normal ICR mice): better than alogliptin
effect on fasting blood glucose (ob/ob mice): effectively decrease fasting blood glucose
fasting blood glucose effect compared with positive control alogliptin (ob/ob mice): superior to the positive control drug alogliptin
effect on fasting blood glucose (db/db mice): reduce its fasting blood glucose
fasting blood glucose effect compared with positive control alogliptin (db/db mice): comparable to the positive control drug alogliptin
AUC0-t compared with alogliptin (Pharmacokinetics in rats): superior to those of the marketed drug alogliptin
half-life compared with alogliptin (Pharmacokinetics in rats): superior to those of the marketed drug alogliptin
AUC0-t compared with alogliptin (Pharmacokinetics in dogs): superior to those of the marketed drug alogliptin
half-life compared with alogliptin (Pharmacokinetics in dogs): superior to those of the marketed drug alogliptin
acute toxicity, animal death (ICR mice): no animal died
subacute toxicity (rats): no obvious toxicity reaction

hygroscopicity (DVS) [4]: slightly hygroscopic
water absorbed [4]: 1.23%
humidity variation range [4]: less than 2.0%
Compound: glycolate of (R)-methyl-2-(3-aminopiperidin-1-yl)-3-(2-cyanobenzyl)-4-carbonyl-3,4-dihydrothiophene[3,2-d]pyrimidine-6-carboxylic acid

Compound: COC(=O)c1cc2nc(N3CCC[C@@H](N)C3)n(Cc3ccccc3C#N)c(=O)c2s1.O=P(O)(O)O [phosphate, phosphate of (R)-methyl-2-(3-aminopiperidin-1-yl)-3-(2-cyanobenzyl)-4-carbonyl-3,4-dihydrothiophene[3,2-d]pyrimidine-6-carboxylic acid]
hygroscopicity (DVS) [4]: slightly hygroscopic
humidity variation range [4]: small

Compound: COC(=O)c1cc2nc(N3CCC[C@@H](N)C3)n(Cc3ccccc3C#N)c(=O)c2s1.Cl [hydrochloride, hydrochloride of (R)-methyl-2-(3-aminopiperidin-1-yl)-3-(2-cyanobenzyl)-4-carbonyl-3,4-dihydrothiophene [3,2-d] pyrimidine-6-carboxylic acid]
hygroscopicity (DVS) [4]: slightly hygroscopic
water absorbed [4]: 2.54%
humidity variation range [4]: less than 3.0%

Compound: COC(=O)c1cc2nc(N3CCC[C@@H](N)C3)n(Cc3ccccc3C#N)c(=O)c2s1.O=C(O)/C=C\C(=O)O [maleate, maleate of (R)-methyl-2-(3-aminopiperidin-1-yl)-3-(2-cyanobenzyl)-4-carbonyl-3,4-dihydrothiophene[3,2-d]pyrimidine-6-carboxylic acid]
hygroscopicity (DVS) [4]: slightly hygroscopicity
water absorbed [4]: 1.57%
humidity variation range [4]: less than 2.0%
